For 107 molecules, melting point results are on record in a melting point compilation (Tetko et al.).

Bounds are passed on as bounds.

By melting point is commonly meant the temperature of the solid-liquid transition.

As for `O=C(O)c1cc(Br)c(O)c(Br)c1`, the melting point is 271 to 274 °C.
For the molecule `Cc1cc(-c2ccccc2)n(N)c(=O)c1C#N`, the melting point stood at 189 °C.
The result for `CC(C)[C@@H](N)CO` reads 32 to 36 °C; that for `Cc1cc(C)c([N+](=O)[O-])c(C)c1Br`, 64 to 66 °C; that for `CCCc1nc(O)n(-c2ccccc2)n1`, 146 °C.
As to `Cc1noc(C)c1N`, the melting point is 52 to 54 °C.
The same measure for `COC(=O)C1CC(=O)c2ccccc21` (configuration not stated): 45 °C; for `O=C1c2ccccc2S(=O)(=O)N1CCCCN1CCN(c2ncccn2)CC1`: 137 °C.
The result for `CC(=O)Nc1ccccc1N` reads 135 °C.
For the molecule `NS(=O)(=O)c1cnccc1Cl`, the melting point lay within 150 to 155 °C.
The same measure for `O=C(c1ccccc1)c1noc(-c2ccc([N+](=O)[O-])cc2)c1S(=O)(=O)c1ccccc1`: 165 °C; for `COc1cc(O)c2c(c1)OC(c1ccc(O)cc1)CC2=O` (configuration not stated): 152 °C.
The result for `CC(C)(CC(=O)O)C(=O)O` reads 140 °C; that for `O=[N+]([O-])c1cc(C(F)(F)F)cc([N+](=O)[O-])c1O`, 47 to 48 °C; that for `Cc1cc(C)n2nc(SCc3ccccc3)nc2n1`, 135 to 136 °C.
On to `C/C(=N\Nc1ccc([N+](=O)[O-])cc1)c1nc2c(ccc3ccccc32)nc1C`, for which the melting point stood at 271 °C.
The result for `Cc1ccccc1F` reads -62 °C.
The result for `CS(=O)(=O)OCCC(=O)N1CCN(C(=O)CCOS(C)(=O)=O)CC1` reads 175 °C.
The same measure for `Cc1noc(NS(=O)(=O)c2ccc(N)cc2)c1C`: 193 °C.
Turning to `Cc1ccccc1C#N`, the melting point was -13.5 °C.
The result for `O=C(O)CCCCCCCc1ccccc1` reads 28 °C.
The same measure for `Cc1cc(C(C)(C)C)c(O)c(C)c1CC1=NCCN1`: 182 °C.
The result for `c1cc(-c2cnco2)ccn1` reads 127 to 128 °C.
For `CCOC(=O)c1c[nH]c2c(F)c(F)c(F)cc2c1=O`, the melting point was in the range of 267 to 272 °C.
`Cc1cc2c(o1)-c1c(oc3ccc(Br)cc13)CCC2(C)c1ccccc1` (configuration not stated) displayed a melting point of 127 °C.
The same measure for `CCC(CO)(CO)CO`: 60 °C; for `COc1cccc(C2C(C(=O)OC(C)C)=C(C)NC(C)=C2C(=O)OC(C)C)c1O`: 196 °C; for `Cc1oc(-c2ccccc2)cc1C(=O)Cl`: 85 to 88 °C.
The result for `C[Si]1(C)O[Si](C)(C)O[Si](C)(C)O[Si](C)(C)O[Si](C)(C)O[Si](C)(C)O[Si](C)(C)O1` reads -26 °C.
For the molecule `O=S(=O)(Cl)c1ccc(-c2ccc(Cl)cc2)cc1`, the melting point lay in the range of 109 to 110 °C.
On to `COC(=O)C1Cc2c([nH]c3ccccc23)C(C)(C)N1` (configuration not stated), for which the melting point is 202 to 204 °C.
The same measure for `Cc1ccc(C(C)CCC(=O)O)cc1` (configuration not stated): 42 °C; for `Nc1ccc(Cl)nc1Cl`: 122 to 123 °C.
The same measure for `O=[N+]([O-])c1cccnc1N1CCOCC1`: 89 to 91 °C.
As to `Nc1ccc(-c2ccc3nn(-c4ccccc4)nc3c2)cc1`, the melting point is 224 to 225 °C.
The result for `O=Cc1coc2ccc(Cl)cc2c1=O` reads 162 to 168 °C.
The result for `COc1ccc(C=CC#N)c(Cl)c1OC` reads 107 to 110 °C; that for `COc1cc2c(c3oc(=O)c4c(c13)CCC4=O)C1C=COC1O2` (configuration not stated), 268 to 269 °C; that for `CCOC(=O)c1cnc2cc(OCC(C)C)c(OCC(C)C)cc2c1O`, 290 °C.
The same measure for `Brc1cnc(N2CCCCC2)nc1OCc1ccccc1`: 107 °C; for `CC(=O)n1cc(C)c2ccccc21`: 65 °C.
With `O=C(O)CSc1ccccc1C(=O)O`, the melting point was determined as 218 °C.
The result for `NCCc1ccc(O)cc1` reads 164 °C.
Turning to `ON(C=C(Br)c1ccccc1)c1ccccc1`, the melting point was found to be 180 °C.
On to `CCOc1cc2c(cc1OCC)C(C)=NCC2`, for which the melting point was 68 to 71 °C.
The result for `CC12CCC3C(CCC4CC5(CCC43C)OCCO5)C1CCC2=O` (configuration not stated) reads 153 °C; that for `C=C[Si](c1ccccc1)(c1ccccc1)c1ccccc1`, 63 to 70 °C; that for `CCOC(=O)c1c(C)n[nH]c1N`, 108 °C.
The result for `COC(=O)c1cccc(C)c1O` reads 29 °C; that for `CCOC(=O)c1c(SC)nn(C(=O)c2ccc(OC)cc2)c1N`, 160 °C.
The result for `CSC(=Nc1nnc(-c2ccc([N+](=O)[O-])cc2)s1)SC` reads more than 250 °C; that for `CCCCCCCCCCCCC(CCCCCCCCCCC)CCCCCCCCCCCC`, 9.7 °C.
On to `O=C1CC(c2ccccc2)Oc2ccccc21` (configuration not stated), for which the melting point came out at 77 °C.
The same measure for `CCN(CC)C(=O)Nc1ccc(OCC(O)CNC(C)(C)C)c(C(C)=O)c1` (configuration not stated): 110 °C.
The same measure for `c1cc2c3c(cccc3c1)CNC2`: 99 °C; for `CC(=O)c1ccc(CCc2ccccc2)cc1`: 68 to 70 °C.
The result for `O=C(CCc1ccccc1)NNc1ccccc1` reads 117 °C; that for `O=C(O)C=Cc1ccc([N+](=O)[O-])cc1`, 289 °C; that for `N#Cc1c(F)cccc1OCc1ccc(Cl)cc1`, 146 to 148 °C.
On to `O=S(=O)(N(c1ccc(Cl)cn1)S(=O)(=O)C(F)(F)F)C(F)(F)F`, for which the melting point stood at 46 °C.
Molecule `Cc1ccnc(N)c1[N+](=O)[O-]` showed a melting point of 136 to 141 °C.
`CC(C)(C)OC(=O)NN`: the melting point came out at 39 °C.
Molecule `CCOC(=O)c1[nH]c(C)c(CC)c1C` yielded a melting point of 87 to 88 °C.
As for `Nc1ccc2c(c1)OCCCO2`, the melting point fell in the range of 81 to 82 °C.
The same measure for `FC1(F)C(Cl)=C(Cl)C(F)(F)C1(F)F`: -106 °C; for `CC(=O)Nc1ccc(S(=O)(=O)Nc2ccc([N+](=O)[O-])cc2)cc1`: 240 °C.
The result for `CC1(c2ccccc2)CNCCO1` (configuration not stated) reads 36 °C; that for `CC(C)(C(=O)O)n1nnc2ccccc21`, 182 °C; that for `O=C(O)Cc1ccc(O)c(F)c1`, 132 to 134 °C.
The result for `Cc1cc(N=Nc2ccc(N)cc2)c(C(C)C)cc1N=Nc1ccc(N)cc1` reads 177 °C; that for `CC1C(=O)C23C(O)CC4C(C)(C)CCCC45COC(CC1C2O)C53` (configuration not stated), 218 to 221 °C; that for `O=C(c1ccccc1)c1noc(-c2ccc3ccccc3c2)c1S(=O)(=O)c1ccccc1`, 178 °C.
In the case of `Fc1cccc2cc[nH]c12`, the melting point was determined as 62 °C.
The result for `Cc1ccc(C(O)C2C(=O)N(c3ccccc3)N=C2C(F)(F)F)cc1` (configuration not stated) reads 257 °C; that for `Nc1ccc(Cl)c(C(=O)O)c1`, 188 °C.
The result for `CCOC(=O)Cn1c(Br)nc(Cl)c1Cl` reads 42 to 45 °C; that for `O=C1c2ccccc2C(=O)N1c1ccc(Cl)cc1`, 197 °C; that for `O=C1CCC(c2ccc(NC(=O)C(Cl)Cl)cc2)=NN1`, 252 to 253 °C.
`NS(=O)(=O)c1c(F)cc(F)cc1Br` yielded a melting point of 126 °C.
The same measure for `O=C(O)C(F)(F)C(F)(F)C(F)(F)C(F)(C(F)(F)F)C(F)(F)F`: 13 °C; for `CN(C)c1ccccc1N(C)C`: 8.9 °C; for `C=C1/C(=N/Nc2cc(Cl)c(Cl)cc2Cl)C(=O)N(C)C(=O)N1C`: 242 °C.
The same measure for `S=c1sc2ccccc2n1CCl`: 126 to 131 °C; for `O=C(CCCl)c1ccccc1`: 48.5 °C.
As for `Oc1ccc(OCc2ccccc2)cc1`, the melting point was found to be 122 °C.
The result for `CC(=O)Nc1ccc(Br)c(F)c1` reads 151 °C; that for `O=[N+]([O-])c1ccc(N2CCCCC2)cc1`, 104 to 106 °C.
Turning to `O=C1CSc2cc(Cl)ccc2N1`, the melting point is 214 °C.
For the molecule `CSC(C)(C)C=NO`, the melting point stood at 21 °C.
`O=C(c1ccc[nH]1)C(Cl)(Cl)Cl` registered a melting point of 72 to 74 °C.
For the molecule `COc1ccc(F)cc1`, the melting point was -45 °C.
The molecule `CC(=O)Oc1ccc(OC(C)=O)c2ccccc12` registered a melting point of 124 °C.
In turn, `CCCCC(C)(O)CC` (configuration not stated) had a melting point of -83 °C.
The result for `CC(=NC#N)N(C)Cc1ccc(Cl)nc1` reads 98.9 °C; that for `O=C1C(=C2C=Cc3cc(-c4ccccc4)ccc3N2)C(=O)c2ccccc21`, 270 to 271 °C; that for `Cc1noc(-c2cccc(Br)c2)n1`, 95 to 96 °C.
The molecule `Cc1c(NC(=O)C(F)(F)C(F)(F)C(F)(F)C(F)(F)C(F)(F)C(F)(F)C(F)(F)C(F)(F)F)c(=O)n(-c2ccccc2)n1C` showed a melting point of 177 °C.
The same measure for `Cc1ccc(S(=O)(=O)NCCN(CCN(CCNS(=O)(=O)c2ccc(C)cc2)S(=O)(=O)c2ccc(C)cc2)S(=O)(=O)c2ccc(C)cc2)cc1`: 112 °C; for `O=C1C(C(O)c2ccc(Cl)cc2)C(C(F)(F)F)=NN1c1ccccc1` (configuration not stated): 168 °C.
For the molecule `COC(=O)c1cc([N+](=O)[O-])cc([N+](=O)[O-])c1`, the melting point is 110 °C.
As to `COc1cc(C2c3cc4c(c(O)c3CC3COC(=O)C32)OCO4)cc(OC)c1OC` (configuration not stated), the melting point was 234 °C.
In turn, `O=C1CCc2ccccc2N1` gave a melting point of 164 °C.
The same measure for `O=Cc1cccc(N2CCCC2)n1`: 63 to 65 °C; for `C#CC1(O)CCC2C3CCC4CCCCC4(C)C3CCC21C` (configuration not stated): 155 °C.
On to `CCOC(=O)C(C)Oc1ccc(Oc2nc3ccc(Cl)cc3o2)cc1` (configuration not stated), for which the melting point is 90 °C.
The same measure for `CCC(C)(c1ccc(O)cc1)c1ccc(O)cc1`: 120 °C; for `CCSC(SCC)C(OC(C)=O)C(OC(C)=O)C(OC(C)=O)C(COC(C)=O)OC(C)=O` (configuration not stated): 111 to 112 °C.
